Data: patent US20100105694A1, “SUBSTITUTED PYRAZINONE DERIVATIVES FOR USE AS A MEDICINE” (priority 2006, published 2010)
Read-outs that look alike come from different tables or passages of the source.

Columns and labels:
[1] = target: T1, human adrenergic-α2C receptor (Homo sapiens, UniProt P18825); experiment: Radioligand binding experiment for α2C-adrenoceptor ([3H]raulwolscine, CHO cell membranes); conditions: [3H]raulwolscine 1 nM, membranes of CHO cells transfected with human α2C receptor; read-out: h-α2C pIC50 (converted)
T1 construct: expressed in transfected cells; host or cells: CHO cells, stably transfected; membranes
T1 sequence (P18825 1-462): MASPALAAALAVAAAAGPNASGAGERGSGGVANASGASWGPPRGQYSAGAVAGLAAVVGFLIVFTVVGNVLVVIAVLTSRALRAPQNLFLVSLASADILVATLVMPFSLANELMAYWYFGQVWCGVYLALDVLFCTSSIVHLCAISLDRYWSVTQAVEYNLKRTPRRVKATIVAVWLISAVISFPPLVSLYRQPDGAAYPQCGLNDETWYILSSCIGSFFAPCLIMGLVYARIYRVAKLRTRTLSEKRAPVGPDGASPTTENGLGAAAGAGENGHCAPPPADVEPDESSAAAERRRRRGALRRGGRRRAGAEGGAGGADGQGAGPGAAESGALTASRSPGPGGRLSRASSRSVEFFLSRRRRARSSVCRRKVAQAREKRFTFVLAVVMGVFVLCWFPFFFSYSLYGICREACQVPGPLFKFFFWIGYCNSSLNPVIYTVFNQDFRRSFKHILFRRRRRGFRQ
Procedure: (§1) The interaction of a compound of Formula (I) with α2C-adrenoceptor receptors was assessed in in vitro radioligand binding experiments. In general, a low concentration of a radioligand with a high binding affinity for a particular receptor or transporter is incubated with a sample of a tissue preparation enriched in a particular receptor or transporter or with a preparation of cells expressing cloned human receptors in a buffered medium. During the incubation, the radioligand binds to the receptor or transporter. When equilibrium of binding is reached, the receptor bound radioactivity is separated from the non-bound radioactivity, and the receptor- or transporter-bound activity is counted. The interaction of the test compounds with the receptor is assessed in competition binding experiments. Various concentrations of the test compound are added to the incubation mixture containing the receptor- or transporter preparation and the radioligand. The test compound in proportion to its binding affinity and its concentration inhibits binding of the radioligand. The radioligand used for hα2A and hα2C receptor binding was [^3H]-raulwolscine.
(§2) CHO cells, stabile transfected with human adrenergic-α2A and α2C receptor cDNA, were cultured in Dulbecco's Modified Eagle's Medium (DMEM)/Nutrient mixture Ham's F12 (ratio 1:1) (Gibco, Gent-Belgium) supplemented with 10% heat inactivated fetal calf serum (Life Technologies, Merelbeke-Belgium) and antibiotics (100 IU/ml penicillin G, 100 μg/ml streptomycin sulphate, 110 μg/ml pyruvic acid and 100 μg/ml L-glutamine). One day before collection, cells were induced with 5 mM sodiumbutyrate. Upon 80-90% of confluence, cells were scraped in phosphate buffered saline without Ca^2+ and Mg^2+ and collected by centrifugation at 1500×g for 10 minutes. The cells were homogenised in Tris-HCl 50 mM using an Ultraturrax homogenizer and centrifuged for 10 minutes at 23,500×g. The pellet was washed once by resuspension and rehomogenization and the final pellet was resuspended in Tris-HCl, divided in 1 ml aliquots and stored at −70° C.
(§3) Membranes were thawed and re-homogenized in incubation buffer (glycylglycine 25 mM, pH 8.0). […] Filters were rinsed extensively with ice-cold rinsing buffer (Tris-HCl 50 mM pH 7.4). Filter-bound radioactivity was determined by scintillation counting in a Topcount (Packard, Meriden, Conn.) and results were expressed as counts per minute (cpm). Non-specific binding was determined in the presence of 1 μM oxymetazoline for the hα2A receptor and 1 μM spiroxatrine for hα2C receptors.
(§4) Data from assays in the presence of compound were calculated as a percentage of total binding measured in the absence of test compound. Inhibition curves, plotting percent of total binding versus the log value of the concentration of the test compound, were automatically generated, and sigmoidal inhibition curves were fitted using non-linear regression. The pIC50 values of test compounds were derived from individual curves.

5HT-Transporter = target: T2, 5HT-Transporter (Homo sapiens, UniProt P31645); experiment: Binding experiment for the 5HT-transporter ([3H]paroxetine, human platelet membranes)
T2 construct: Human platelet membranes (Oceanix Biosciences Corporation, Hanover, Md., USA) were thawed; tissue Oceanix Biosciences Corporation; host or cells: human platelet membranes
Procedure: as §1
Human platelet membranes (Oceanix Biosciences Corporation, Hanover, Md., USA) were thawed, diluted in buffer (Tris-HCl 50 mM, 120 mM NaCl and 5 mM KCl) and quickly (max 3 s) homogenised with an Ultraturrax homogenizer. […] Incubation was stopped by rapid filtration of the incubation mixture over GF/B filters, pre-wetted with 0.1% polyethyleneamine, using a Filtermate196 harvester (Packard, Meriden, Conn.). Filters were rinsed extensively with ice-cold buffer and radioactivity on the filters was counted in a Topcount liquid scintillation counter (Packard, Meriden, Conn.). Data were expressed as cpm. Imipramine (at 1 μM final concentration) was used to determine the non-specific binding.
as §4

[2] = target: T3, human adrenergic-α2A receptor (Homo sapiens, UniProt P08913); experiment: Radioligand binding experiment for hα2A receptor ([3H]raulwolscine, CHO cell membranes)
T3 construct: expressed in transfected cells; host or cells: CHO cells, stably transfected; membranes
T3 sequence (P08913 1-465): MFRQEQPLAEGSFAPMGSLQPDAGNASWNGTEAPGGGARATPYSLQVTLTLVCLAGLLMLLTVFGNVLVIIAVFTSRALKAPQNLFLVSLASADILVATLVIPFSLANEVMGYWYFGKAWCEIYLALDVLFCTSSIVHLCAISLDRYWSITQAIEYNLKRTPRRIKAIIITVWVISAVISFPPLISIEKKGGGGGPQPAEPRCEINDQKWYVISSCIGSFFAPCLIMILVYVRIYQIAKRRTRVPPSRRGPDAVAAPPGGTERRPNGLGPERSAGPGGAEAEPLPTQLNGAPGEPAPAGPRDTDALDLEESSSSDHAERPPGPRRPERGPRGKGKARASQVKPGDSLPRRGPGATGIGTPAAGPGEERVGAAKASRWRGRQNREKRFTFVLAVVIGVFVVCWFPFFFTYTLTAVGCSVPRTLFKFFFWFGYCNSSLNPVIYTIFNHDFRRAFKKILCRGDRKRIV
Procedure: as §1, §2, §3, §4

[3] = [3H]paroxetine 0.5 nM, read-out: h-5HTT pIC50 (converted)
[4] = [3H]raulwolscine 1 nM, membranes of CHO cells transfected with human α2A receptor, read-out: h-α2A pIC50 (converted)

T2 sequence (P31645 whole entry): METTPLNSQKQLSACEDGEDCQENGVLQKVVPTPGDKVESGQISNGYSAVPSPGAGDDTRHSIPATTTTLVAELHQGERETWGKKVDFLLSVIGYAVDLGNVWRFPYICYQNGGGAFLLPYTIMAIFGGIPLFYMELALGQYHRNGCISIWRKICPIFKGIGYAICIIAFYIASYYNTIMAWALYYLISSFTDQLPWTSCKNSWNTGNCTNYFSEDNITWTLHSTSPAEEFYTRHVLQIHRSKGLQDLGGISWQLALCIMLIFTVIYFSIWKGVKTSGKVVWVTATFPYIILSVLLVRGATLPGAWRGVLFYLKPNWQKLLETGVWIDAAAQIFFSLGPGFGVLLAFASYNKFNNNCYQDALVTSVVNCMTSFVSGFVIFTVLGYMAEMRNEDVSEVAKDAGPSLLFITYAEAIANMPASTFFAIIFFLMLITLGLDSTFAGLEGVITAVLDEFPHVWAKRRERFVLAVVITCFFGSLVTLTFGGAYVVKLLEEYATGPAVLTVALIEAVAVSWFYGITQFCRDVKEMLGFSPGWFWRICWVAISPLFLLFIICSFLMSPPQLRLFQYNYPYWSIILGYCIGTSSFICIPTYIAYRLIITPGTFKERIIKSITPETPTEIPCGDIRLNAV

SMILES | IC50 [1] | IC50 (5HT-Transporter; [3]) | IC50 [2, 4] | IC50 (5HT-Transporter; h-5HTT pIC50, [3H]paroxetine 0.5 nM) | IC50 [2]
NCc1ccc(Cn2ccnc(NC3CCN(Cc4ccc(-c5ccccc5)cc4)CC3)c2=O)cc1 [Compound 1-1] | 251 nM | 501 nM | 251 nM |  | 
O=c1c(NC2CCN(Cc3ccc(-c4ccccc4)cc3)CC2)nccn1CCN1CCCCC1 [Compound 1-3] | 100 nM | 2510 nM | 501 nM |  | 
O=C1c2ccccc2C(=O)N1CCCn1ccnc(NC2CCN(Cc3ccc(-c4ccccc4)cc3)CC2)c1=O [Compound 1-4] | 126 nM | 158 nM | 631 nM |  | 
COC(=O)Cn1ccnc(NC2CCN(Cc3ccc(-c4ccccc4)cc3)CC2)c1=O [Compound 1-5] | 316 nM | 5010 nM | 1260 nM |  | 
O=c1c(NC2CCN(Cc3ccc(-c4ccccc4)cc3)CC2)nccn1Cc1ccccc1Br [Compound 1-6] | 501 nM | 398 nM | 794 nM |  | 
O=c1c(NC2CCN(Cc3ccc(-c4ccccc4)cc3)CC2)nccn1Cc1cccc(Br)c1 [Compound 1-7] | 398 nM | 1000 nM | 1000 nM |  | 
O=c1c(NC2CCN(Cc3ccc(-c4ccccc4)cc3)CC2)nccn1Cc1ccc(Br)cc1 [Compound 1-8] | 794 nM | 631 nM | 1000 nM |  | 
O=c1c(NC2CCN(Cc3ccc(-c4ccccc4)cc3)CC2)nccn1CC1CCCCO1 (stereo not drawn) [Compound 1-9] | 631 nM | 316 nM | 2000 nM |  | 
O=c1c(NC2CCN(Cc3ccc(-c4ccccc4)cc3)CC2)nccn1Cc1ccncc1 [Compound 1-10] | 794 nM | > 10000 nM | 3160 nM |  | 
O=c1c(NC2CCN(Cc3ccc(-c4ccccc4)cc3)CC2)nccn1Cc1ccc2ccccc2n1 [Compound 1-11] | 794 nM | 501 nM | 631 nM |  | 
CC(C)(C)OC(=O)NCCCn1ccnc(N2CCN(Cc3ccc(-c4ccccc4)cc3)CC2)c1=O [Compound 2-1] | 631 nM | 1580 nM | 1260 nM |  | 
O=C1c2ccccc2C(=O)N1CCCn1ccnc(N2CCN(Cc3ccc(-c4ccccc4)cc3)CC2)c1=O [Compound 2-2] | 316 nM | 200 nM | 1000 nM |  | 
NCc1ccc(Cn2ccnc(N3CCN(Cc4cccc(-c5ccccc5)c4)CC3)c2=O)cc1 [Compound 3-1] | 631 nM | 5010 nM | 79.4 nM |  | 
CC(C)(C)OC(=O)NCc1ccc(Cn2ccnc(N3CCN(Cc4cccc(-c5ccccc5)c4)CC3)c2=O)cc1 [Compound 3-2] | 251 nM | 6310 nM | 200 nM |  | 
O=c1[nH]ccnc1N1CCN(Cc2cccc(-c3ccccc3)c2)CC1 [Compound 3-3] | 316 nM | > 10000 nM | 316 nM |  | 
C=CCn1ccnc(N2CCN(Cc3cccc(-c4ccccc4)c3)CC2)c1=O [Compound 3-4] | 794 nM |  | 200 nM |  | 
O=c1c(N2CCN(Cc3cccc(-c4ccccc4)c3)CC2)nccn1CC=Cc1ccccc1 [Compound 3-6] | 794 nM | 5010 nM | 794 nM |  | 
O=c1c(N2CCN(Cc3cccc(-c4ccccc4)c3)CC2)nccn1Cc1ccc2ccccc2c1 [Compound 3-7] |  | 5010 nM | 200 nM |  | 

SMILES | IC50 [1] | IC50 (5HT-Transporter; [3]) | IC50 [2, 4] | IC50 (5HT-Transporter; h-5HTT pIC50, [3H]paroxetine 0.5 nM) | IC50 [2]
O=c1c(N2CCN(Cc3cccc(-c4ccccc4)c3)CC2)nccn1Cc1ccco1 [Compound 3-8] | 316 nM |  | 79.4 nM |  | 
O=C1c2ccccc2C(=O)N1CCCn1ccnc(N2CCN(Cc3cccc(-c4ccccc4)c3)CC2)c1=O [Compound 3-9] | 794 nM | 794 nM | 1580 nM |  | 
COc1ccc(-c2nnc(Cn3ccnc(N4CCN(Cc5cccc(-c6ccccc6)c5)CC4)c3=O)o2)cc1 [Compound 3-10] |  | 6310 nM | 501 nM |  | 
O=c1c(N2CCC(c3ccccc3)CC2)nccn1Cc1ccc2ccccc2c1 [Compound 4-1] | 501 nM | 3980 nM | 501 nM |  | 
NCc1ccc(Cn2ccnc(N3CCC(c4ccccc4)CC3)c2=O)cc1 [Compound 4-2] | 794 nM | > 10000 nM | 501 nM |  | 
CC(C)(C)OC(=O)NCc1ccc(Cn2ccnc(N3CCC(c4ccccc4)CC3)c2=O)cc1 [Compound 4-3] | 631 nM | > 10000 nM | 200 nM |  | 
NCc1ccc(Cn2ccnc(NC3CCN(Cc4ccccc4)CC3)c2=O)cc1 [Compound 5-1] |  | 7940 nM |  |  | 
NCc1ccc(Cn2ccnc(NC3CCN(Cc4ccccc4)CC3)c2=O)cc1 [Compound 5-2] | 631 nM | > 10000 nM | 1000 nM |  | 
NCc1ccc(CN(c2nccn(Cc3ccc(CN)cc3)c2=O)C2CCN(Cc3ccccc3)CC2)cc1 [Compound 5-3] |  | > 10000 nM | 1000 nM |  | 
O=c1c(NC2CCN(Cc3ccccc3)CC2)nccn1CCN1CCCCC1 [Compound 5-4] |  | > 10000 nM | 3160 nM |  | 
O=C1c2ccccc2C(=O)N1CCCn1ccnc(NC2CCN(Cc3ccccc3)CC2)c1=O [Compound 5-5] | 398 nM | 3980 nM | 5010 nM |  | 
NCCCn1ccnc(NC2CCN(CCc3ccccc3)CC2)c1=O [Compound 6-1] |  |  |  | > 10000 nM | 3980 nM
NCc1ccc(Cn2ccnc(NC3CCN(CCc4ccccc4)CC3)c2=O)cc1 [Compound 6-2] |  | 3980 nM |  |  | 
NCc1ccc(Cn2ccnc(NC3CCN(CCc4ccccc4)CC3)c2=O)cc1 [Compound 6-3] | 398 nM | > 10000 nM | 1260 nM |  | 
NCCCn1ccnc(NC2CCN(CC(c3ccccc3)c3ccccc3)CC2)c1=O [Compound 9-1] | 501 nM |  | 1000 nM |  | 
CC(C)(C)OC(=O)NCc1ccc(Cn2ccnc(N3CCN(CCc4ccccc4)CC3)c2=O)cc1 [Compound 10-3] | 316 nM |  | 794 nM |  | 
O=C(Cn1ccnc(N2CCN(CCc3ccccc3)CC2)c1=O)c1ccccc1 [Compound 10-7] |  | > 10000 nM | 2000 nM |  | 
O=c1c(N2CCN(Cc3ccccc3)CC2)nccn1Cc1ccc2ccccc2c1 [Compound 10-9] | 794 nM |  | 126 nM |  | 
